Oligonucleotides are written 5' to 3', each unit as a sugar letter and its base; * is a phosphorothioate linkage, no mark a phosphodiester; rarer units and linkages stand in square brackets, end groups in braces. Plain capitals give the bases only. e = 2'-O-(2-methoxyethyl) (MOE); [5mC] = 5-methylcytosine; d = 2'-deoxy (DNA)

One series deals with lung cancer. Format: in vivo, human. Conditions: each group; loading doses then custirsen with a chemotherapeutic agent. The text has this: At least 50 lung cancer patients are separated into two groups.
For series [1] the following is noted: in vivo.
In the next series the test system is breast cancer. Format: in vivo, human. Particulars: each group; loading doses then custirsen with a chemotherapeutic agent. The text has this:
At least 50 breast cancer patients are separated into two groups.

Turning to “Custirsen: anti-clusterin antisense oligonucleotide CAGCAGCAGAGTCTTCATCAT, phosphorothioate backbone, 2′-O-methoxyethyl at nucleotides 1-4 and 18-21, 5-methylcytosines at 1, 4, 19 (antisense e[5mC]*eA*eG*e[5mC]*dA*dG*dC*dA*dG*dA*dG*dT*dC*dT*dT*dC*dA*eT*e[5mC]*eA*eT; listed as Homo sapiens)”, the “cancer condition of patients” value in the series on lung cancer is given as “improves”. Also, in series [1], the “chills, patients” value is 35%; the “fever, patients” value amounted to 50%; the “occurrence of grade 3/4 hepatic toxicity” value is “rare”; the “severity of fever and chills/rigors” value is “usually mild (grade 1-2)”. For the same substance, the “time of appearance of fever and chills/rigors after the infusion” value in series [1] was 4 to 8 h. Further, the “cancer condition of patients” value in the series on breast cancer is given as “improves”.

Source of the values: patent US9364496B2 (ONCOGENEX TECHNOLOGIES INC., priority 2013, dated 2016).
